# Data reported in ChEMBL document CHEMBL1153375, “Synthesis and antibacterial activities of N-glycosylated derivatives of tyrocidine A, a macrocyclic peptide antibiotic” (2009).
# The source made the active and inactive calls. No cut-off for these calls is given here.
# Tests used:
# Bacillus subtilis [1] = experiment: Antibacterial activity against Bacillus subtilis CMCC-B 63501 by twofold serial dilution method; assay type: functional
# Bacillus subtilis [2] = experiment: Antibacterial activity against Bacillus subtilis CMCC-B 63501 up to 500 ug/ml by twofold serial dilution method; assay type: functional, organism-based
# [3] = Bacillus subtilis, read-out: MIC
SMILES,MIC (Bacillus subtilis [1]; [3]) [µg/mL],Activity (Bacillus subtilis [2]),also measured
"CC(=O)N[C@@H]1[C@@H](O)[C@H](O)[C@@H](CO)O[C@H]1NC(=O)C[C@@H]1NC(=O)C(Cc2ccccc2)NC(=O)[C@H](Cc2ccccc2)NC(=O)[C@@H]2CCCN2C(=O)C(Cc2ccccc2)NC(=O)[C@H](CC(C)C)NC(=O)[C@H](CCCN)NC(=O)[C@H](C(C)C)NC(=O)[C@H](Cc2ccc(O)cc2)NC(=O)[C@H](CCC(N)=O)NC1=O (single isomer, unassigned)",,inactive,
"CC(=O)N[C@@H]1[C@@H](O)[C@H](O[C@@H]2O[C@H](CO)[C@@H](O)[C@H](O)[C@H]2NC(C)=O)[C@@H](CO)O[C@H]1NC(=O)C[C@@H]1NC(=O)C(Cc2ccccc2)NC(=O)[C@H](Cc2ccccc2)NC(=O)[C@@H]2CCCN2C(=O)C(Cc2ccccc2)NC(=O)[C@H](CC(C)C)NC(=O)[C@H](CCCN)NC(=O)[C@H](C(C)C)NC(=O)[C@H](Cc2ccc(O)cc2)NC(=O)[C@H](CCC(N)=O)NC1=O (single isomer, unassigned)",,inactive,
CC(C)C[C@@H]1NC(=O)[C@H](CCCN)NC(=O)[C@H](C(C)C)NC(=O)[C@H](Cc2ccc(O)cc2)NC(=O)[C@H](CCC(N)=O)NC(=O)[C@H](CC(N)=O)NC(=O)[C@@H](Cc2ccccc2)NC(=O)[C@H](Cc2ccccc2)NC(=O)[C@@H]2CCCN2C(=O)[C@@H](Cc2ccccc2)NC1=O (stereo in doubt) [TYROCIDINE A],,,MIC (Bacillus subtilis [1]): 20 µg/mL

# More lines, main results first:
MIC (Bacillus subtilis [1]; [3]) [µg/mL],SMILES,Activity (Bacillus subtilis [2]),also measured
62,"CC(C)C[C@@H]1NC(=O)[C@H](CCCN)NC(=O)[C@H](C(C)C)NC(=O)[C@H](Cc2ccc(O)cc2)NC(=O)[C@H](CCC(N)=O)NC(=O)[C@H](CC(=O)NCCO[C@@H]2O[C@H](CO)[C@@H](O[C@@H]3O[C@H](CO)C(O)[C@H](O)[C@H]3O)[C@H](O)[C@H]2O)NC(=O)C(Cc2ccccc2)NC(=O)[C@H](Cc2ccccc2)NC(=O)[C@@H]2CCCN2C(=O)C(Cc2ccccc2)NC1=O (single isomer, unassigned)",,
31,CC(C)C[C@@H]1NC(=O)[C@H](CCCN)NC(=O)[C@H](C(C)C)NC(=O)[C@H](Cc2ccc(O)cc2)NC(=O)[C@H](CCC(N)=O)NC(=O)[C@H](CC(N)=O)NC(=O)[C@@H](Cc2ccccc2)NC(=O)[C@H](Cc2ccccc2)NC(=O)[C@@H]2CCCN2C(=O)[C@@H](Cc2ccccc2)NC1=O (stereo in doubt; 1) [TYROCIDINE A],,
